Laboratory results reported in patent US20190282616A1, “MACROPHAGES REDIRECT PHAGOCYTOSIS BY NON-PROFESSIONAL PHAGOCYTES AND INFLUENCE INFLAMMATION” (University of Virginia Patent Foundation, priority 2016, published 2019).

Columns and labels:
LR73 cells [1] = conditions: for effect on IGF-1 induced increase in liposome uptake / basal uptake of liposomes: LR73 cells; for effect on IGF-1 induced increase in liposome uptake: inhibitor plus IGF-1; for basal uptake of liposomes: inhibitor without IGF-1; for uptake of PtdSer containing liposomes by LR73 cells: liposomes of 150-200 nm, IGF-1 50 ng/mL, EGF or VEGF 100 ng/mL each
Procedure: (§1) LR73, SVEC-40, BEAS-2B, and 16HBE14o-cells were seeded in a 24 well plate. Thymocytes were isolated from 4-6 week old mice and induced to undergo apoptosis with dexamethasone. Thymocytes or prepared microvesicles were then stained with either CypHer5E (GE Healthcare, PA15401) or TAMRA (Invitrogen, C-1171). LR73 and SVEC-40 cells were incubated with apoptotic thymocytes at a 1:10 phagocyte to target ratio, BEAS-2B at a 1:5 phagocyte to target ratio, and 16HBE14o—at a 1:20 phagocyte to target ratio for 2 hours. Mouse IGF-I (Sigma-Aldrich), human IGF-I (Sigma-Aldrich), human IGF-II (Sigma-Aldrich) were added to the phagocytes at the same time as addition of apoptotic targets. For IGFBP3 studies, IGFBP3 (Sigma-Aldrich) was added to media or supernatant from J774 cells for one hour to allow IGFBP3 to bind to any available IGF-I, then the mix is added to phagocytes along with apoptotic targets. For all pharmacological studies, phagocytes were pre-incubated with the compounds listed below for one hour prior to addition of apoptotic targets: cytochalasin D (Sigma-Aldrich, C8273, 1 μM), Latrunculin A (Tocris, 3973, 150 nM), CK-666 (Tocris, 3950, 25 μM-100 μM), OSI-906 (Selleckchem, S1091, 5 nM-40 nM), NVP-AEW541 (Selleckchem, S1034, 25 nM-100 nM), Rapamycin (Sigma-Aldrich, R0395, […]), MK-2206 2HCl (Selleckchem, S1078, 10 nM-1 U0126-EtOH (Selleckchem, S1102, […]), Wortmannin (Sigma-Aldrich, W1628, 50 nM-200 nM), Y27632 (Calbiochem, 688000, 3.75 μM-15 μM), or GSK269962 (Tocris, 4009, 80 nM-2 μM). […] Targets were then washed off three times with PBS, and the cells were dissociated from the plate with trypsin and the engulfment assessed by flow cytometry.
Liposomes were prepared by dissolving the lipids (phosphatidylserine, dioleoyl phosphatidylcholine, cholesterol and the lipid DiD dye) in chloroform, evaporating chloroform under flow of argon gas in a glass vial, then subjecting the lipid layer to overnight lyophilization to remove traces of organic solvent. Then normal saline was added for hydration, and intense vortexing was preformed to prepare multilamellar vesicles (MIN). Liposomes were repeatedly filtered through a 0.2 um Nuclepore polycarbonate filter to prepare smaller particles. Particle size was verified by dynamic light scattering using Nicomp 370.

LR73 cells [2] = test: In vitro engulfment assay: apoptotic thymocyte uptake by LR73 cells; assay type: cell-based, hamster; conditions: for basal phagocytosis of apoptotic cells with inhibitor alone: without IGF-1; for reversal of IGF-1 mediated engulfment suppression in LR73 cells: agent added in the presence of IGF-1; for apoptotic cell uptake (engulfment) by LR73 cells: soluble mediator alone, IGF-I at concentrations reported in serum (100-600 ng/mL), other factors over a range of concentrations; for apoptotic cell uptake by LR73 cells: human insulin or human IGF-II, at higher concentrations than IGF-1
Procedure: as §1

[3] = test system: IGF-1R, Akt and Erk1/2 phosphorylation in LR73 cells; test: Immunoblotting of signaling in LR73 cells; assay type: cell-based, hamster; conditions: for phosphorylation of IGF-1R and Erk: LR73 cells stimulated with IGF-1 and treated with inhibitor; for early downstream signaling events (Erk1/2 phosphorylation): serum-starved LR73 cells, 100 ng/mL growth factor
Procedure: LR73, J774, or BEAS-2B cells were seeded in a 60 mm dish at a concentration of 5×10^5. […] Cells were lysed in RIPA buffer and used in Western blots. The blots were probed for phospho-Erk1/2 (Cell Signaling Technology, #4370), phospho-Akt (Cell Signaling Technology, #4060), phospho-IGF-1R (Cell Signaling, #3024), total Erk2 (Santa Cruz Biotechnology, #sc-154-G), total Akt (Cell Signaling Technology, #4691), total IGF-1R (Cell Signaling, #9750), and anti-B-actin-HRP (Sigma-Aldrich, #A3854) followed by chemiluminescence detection.

peritoneal macrophages = test: IGF-1 secretion by peritoneal macrophages (ELISA); assay type: cell-based, mouse; conditions: treated with IL-4
Procedure: To obtain bone-marrow derived macrophages, femurs were removed from 8 week old mice and flushed with 5 mL of sterile PBS containing 5% FBS. The cell suspension was centrifuged, treated with red blood cell lysis buffer, washed, and then plated onto sterile petri dishes in DMEM containing 10% L929 media, 10% FBS and 1% penicillin/streptomycin/glutamine (PSQ). Media was replenished every 2 to 3 days and differentiated cells were used at day 6 post-harvest. Resident peritoneal macrophages were obtained by flushing the peritoneal cavity of mice with 10 mL of cold PBS containing 5% FBS. Collected cells were spun down, resuspended in X-VIVO 10 (Lonza) and plated at a concentration of 3×10^5 cells per well in a 24 well plate for IGF-1 secretion assays, and 5×10^5 per well in a 24 well plate for engulfment assays. Floating cells were washed the next day and remaining peritoneal macrophages were used 2 days after isolation. […]
IL-4, IL-5, IL-6, and CCL-11/Eotaxin-1 in the BAL fluid of mice that were sensitized with HDM (regimen #1) were quantified by a multiplex Luminex performed by the University of Virginia Flow Cytometry Core Facility. Secretion of IGF-1 from J774 cells, peritoneal macrophages, and BAL fluids, as well as TSLP from BAL fluids, were measured by ELISA (R&D Systems).

IGF-1 in BAL fluid = test: In vivo cytokine administration: IGF-1 in BAL fluid; conditions: 1 μg recombinant mouse cytokine intranasally for two consecutive days
Procedure: Mice were administered intranasally with 1 μg of recombinant mouse IL-4, IL-5, or IL-13 (eBiosciences), 1×10^6 apoptotic Jurkat cells, or PBS as control, for two consecutive days. On the third day, BAL fluid was recovered and centrifuged; the supernatant was stored at −80° C. for subsequent cytokine analysis. IL-4, IL-5, IL-6, and CCL-11/Eotaxin-1 in the BAL fluid of mice that were sensitized with HDM (regimen #1) were quantified by a multiplex Luminex performed by the University of Virginia Flow Cytometry Core Facility. Secretion of IGF-1 from J774 cells, peritoneal macrophages, and BAL fluids, as well as TSLP from BAL fluids, were measured by ELISA (R&D Systems).

[4] = test system: MH-S alveolar macrophages; test: Microvesicle secretion by MH-S alveolar macrophages; assay type: cell-based, mouse; conditions: IL-4 treated MH-S alveolar macrophages, counted using qNano
Procedure: MH-S, mouse alveolar macrophages, or primary mouse alveolar macrophages were seeded. After adherence, the media was replaced with 0.22 μm filtered media to remove any contaminating microvesicles. After an overnight incubation, the supernatant was harvested and spun at 5000×g to remove cell debris and apoptotic bodies. The pellet was discarded and the resulting supernatant was filtered through 0.8 μm filter and spun again at 17,000×g. The pelleted microvesicles were then washed with HBSS and then spun again at 17,000×g. For engulfment assays, microvesicles were stained with TAMRA for 20 minutes and then added to BEAS-2B cells for 90 minutes. For flow cytometry, purified particles were stained with CD11c, Siglec F, and Annexin V (BD Biosciences, Cat. No. 550475) and processed on Imagestream™ imaging flow cytometer (Amnis). Microvesicle size distribution was characterized using qNano (IZON Science) with a NP400 membrane and at least 500 particles were counted. Microvesicles were prepared for cryo-electron microscopy using standard methods and imaged on an FEI TF20.

IC-21 cells = test: Apoptotic thymocyte engulfment by IC-21 cells; assay type: cell-based; conditions: indicated concentrations of mouse IGF-1 or human insulin

## Cc1[nH]c2ccccc2c1CCNC(=O)c1ccccc1F [CK-666]
LR73 cells [1]
  effect on IGF-1 induced increase in liposome uptake: minimal effect

## C=C1[C@@H](C)[C@H]2[C@H](Cc3ccccc3)NC(=O)[C@]23[C@H](OC(C)=O)/C=C/[C@@](C)(O)C(=O)[C@@H](C)C/C=C/[C@H]3[C@@H]1O [Cytochalasin D]
LR73 cells [2]
  basal phagocytosis of apoptotic cells with inhibitor alone: potently inhibited phagocytosis of apoptotic cells
LR73 cells [1]
  effect on IGF-1 induced increase in liposome uptake: blocked the IGF-1 induced increase in liposome uptake
  basal uptake of liposomes: did not affect the basal uptake of liposomes
LR73 cells [1]; for the duration of the assay
  morphology of treated LR73 cells: appeared morphologically normal

## CCn1c(-c2nonc2N)nc2cnc(Oc3cccc(NC(=O)c4ccc(OCCN5CCOCC5)cc4)c3)cc21 [GSK269962, reference compound]
LR73 cells [2]
  reversal of IGF-1 mediated engulfment suppression in LR73 cells: does not appear to rescue IGF-1 induced engulfment suppression
  basal phagocytosis of apoptotic cells with inhibitor alone: basally increases phagocytosis of apoptotic cells

## C/C1=C/C(=O)O[C@@H]2C[C@@H](CC[C@H](C)/C=C\C=C\CC1)O[C@@](O)([C@@H]1CSC(=O)N1)C2 [Latrunculin A]
LR73 cells [1]
  effect on IGF-1 induced increase in liposome uptake: reversed IGF-1 mediated enhancement of liposome uptake
  basal uptake of liposomes: without affecting the basal uptake of liposomes

## Nc1ncnc2c1c(-c1cccc(OCc3ccccc3)c1)cn2C1CC(CN2CCC2)C1 (centres unmarked) [NVP-AEW541, reference compound]
LR73 cells [2]
  reversal of IGF-1 mediated engulfment suppression in LR73 cells: rescued the engulfment capacity of LR73 cells
[3]
  phosphorylation of IGF-1R and Erk: concomitant decrease in phosphorylation of IGF-1R and Erk

## C[C@]1(O)C[C@@H](c2nc(-c3ccc4ccc(-c5ccccc5)nc4c3)c3c(N)nccn32)C1 [OSI-906, reference compound]
LR73 cells [2]
  reversal of IGF-1 mediated engulfment suppression in LR73 cells: rescued the engulfment capacity of LR73 cells
LR73 cells [1]
  effect on IGF-1 induced increase in liposome uptake: reduced the increased liposome uptake
[3]
  phosphorylation of IGF-1R and Erk: concomitant decrease in phosphorylation of IGF-1R and Erk

## C[C@@H](N)[C@H]1CC[C@H](C(=O)Nc2ccncc2)CC1 [Y27632, reference compound]
LR73 cells [2]
  reversal of IGF-1 mediated engulfment suppression in LR73 cells: does not appear to rescue IGF-1 induced engulfment suppression
  basal phagocytosis of apoptotic cells with inhibitor alone: basally increases phagocytosis of apoptotic cells

## EGF: growth factor of the tested panel of soluble mediators (NSDSECPLSHDGYCLHDGVCMYIEALDKYACNCVVGYIGERCQYRDLKWWELR; Epidermal growth factor; UniProt P01133 971-1023, looked up)
LR73 cells [2]
  apoptotic cell uptake (engulfment) by LR73 cells: did not alter engulfment
LR73 cells [1]
  uptake of PtdSer containing liposomes by LR73 cells: not seen
[3]
  early downstream signaling events (Erk1/2 phosphorylation): elicited early downstream signaling events

## IGFBP3: IGF binding protein that stabilizes and sequesters IGF-1 (Sigma-Aldrich)
LR73 cells [2]; J774 supernatant incubated with IGFBP3, LR73 cells
  reversal of suppression by macrophage produced IGF-1: reversed by IGFBP3 addition
LR73 cells [2]
  reversal of IGF-1 mediated engulfment suppression in LR73 cells: restored the phagocytic capability of LR73 cells
LR73 cells [2]; supernatant of unstimulated J774 cells plus IGFBP3
  basal phagocytosis by LR73 cells: increases the basal phagocytosis

## IL-4: cytokine; recombinant mouse IL-4 (eBiosciences)
Peritoneal macrophages
  IGF-1 secretion by peritoneal macrophages: confirmed IGF-1 secretion
IGF-1 in BAL fluid
  IGF-1 in bronchoalveolar lavage (BAL) fluid: increased level of IGF-1
[4]
  microvesicles secretion by macrophages: increased microvesicles secretion

## PDGF-AA: growth factor of the tested panel of soluble mediators
LR73 cells [2]
  apoptotic cell uptake (engulfment) by LR73 cells: did not alter engulfment
[3]
  early downstream signaling events (Erk1/2 phosphorylation): elicited early downstream signaling events

## VEGF
LR73 cells [2]
  apoptotic cell uptake (engulfment) by LR73 cells: did not alter engulfment
LR73 cells [1]
  uptake of PtdSer containing liposomes by LR73 cells: not seen
[3]
  early downstream signaling events (Erk1/2 phosphorylation): elicited early downstream signaling events

## fibroblast growth factor 2 [FGF2]
LR73 cells [2]
  apoptotic cell uptake (engulfment) by LR73 cells: did not alter engulfment
[3]
  early downstream signaling events (Erk1/2 phosphorylation): elicited early downstream signaling events

## insulin-like growth factor II [IGF-II]
LR73 cells [2]
  apoptotic cell uptake by LR73 cells: could also reduce apoptotic cell uptake

## insulin: shares structural similarity with IGF-1, lower affinity for IGF-1R
LR73 cells [2]
  apoptotic cell uptake by LR73 cells: could also reduce apoptotic cell uptake
IC-21 cells
  corpse uptake by IC-21 cells: engulf apoptotic cells at normal capacity
